From PMC9583322, “Vicinal Diaryl-Substituted Isoxazole and Pyrazole Derivatives with In Vitro Growth Inhibitory and In Vivo Antitumor Activity” (ACS Omega, 2022)

Key:
[1] = tested on: Mahlavu, Huh7, MCF7, and MDA-MB-231; experiment: Annexin V flow cytometry; type: cell-based, human; details: 5 μM; compared to the control group
Description: Mahlavu, Huh7, MCF7, and MDA-MB-231 were seeded onto six-well plates. After 24 h, the cells were incubated with 5 μM compounds 11 and 85 by keeping DMSO as a negative control. […] PI and Annexin V dyes were added onto cell lysates for 15 min at room temperature in the dark to stain the cells for detecting apoptotic cell populations. The cells were analyzed by flow cytometry.

[2] = tested on: Mahlavu, Huh7, MCF7, and MDA-MB-231 cells; experiment: Hoechst nuclear staining for cell death; type: cell-based, human; details: IC100 concentrations, 48 h
Description: Mahlavu, Huh7, MCF7, and MDA-MB-231 cells were cultured onto cover slides in six-well plates for 24 h according to their cell growth rate. […] The 1× PBS was used to wash the cells three times, and the cells were fixed with 100% ice-cold methanol. Then, the cells were stained with 1 μg/mL Hoechst (#33258, Sigma). The cells were analyzed under the fluorescence microscope (Nikon Eclipse 50i).

MCF10A = experiment: Real-time cell electronic sensing (RT-CES); type: cell-based, human; details: 2.5, 5, 10 μM; immortalized normal breast epithelial cells
Description: (§1) To monitor the real-time cell growth of cells and cytotoxicity of compounds, the xCELLigence system (Roche Applied Sciences) was used. The cells were seeded onto 96-well E-Plate Mahlavu (1500 cell/well), MCF7, Huh7 (2500 cell/well), MDA-MB-231 (5000 cell/well), and MCF10A (6000 cell/well) in 100 μL of the medium/well. To examine the proliferation of cells, the cellular growth was monitored as cell index (CI) every 30 min for 24 h. When the cells were in a log growth phase, treatment with compounds 11 and 85 in 2.5, 5, and 10 μM concentrations was done, the CI values were recorded every 10 min for 24 h for controlling fast drug response and then every 30 min for the remaining 48 h for long-term dose response. After 72 h of incubation, the cellular growth ratios were calculated by CIDrug/CIDMSO.

[3] = tested on: Mahlavu, Huh7, MDA-MB-231, and MCF-7; experiment: Real-time cell electronic sensing (RT-CES); type: cell-based, human; details: 2.5, 5, 10 μM; compared to control (DMSO)
Description: as §1

SNB-19 = experiment: NCI-60 single-dose screen; type: cell-based; details: Homo sapiens, SNB-19, CNS Cancer, read-out: % Growth Inhibition (GI%)
Description: (§2) Moreover, in vitro single-dose anticancer screening of 11 and 85 at 10 μM was performed utilizing the stable panel of 60 cell lines comprising 9 different cancer types at the National Cancer Institute (NCI) under the Developmental Therapeutics Program (Table S1).[31]

M14 = experiment: NCI-60 single-dose screen; type: cell-based; details: Homo sapiens, M14, Melanoma, read-out: % Growth Inhibition (GI%)
Description: as §2

RPMI-8226 = experiment: NCI-60 single-dose screen; type: cell-based; details: Homo sapiens, RPMI-8226, Leukemia, read-out: % Growth Inhibition (GI%)
Description: as §2

RXF 393 = experiment: NCI-60 single-dose screen; type: cell-based; details: Homo sapiens, RXF 393, Renal Cancer, read-out: % Growth Inhibition (GI%)
Description: as §2

MDA-MB-231 = experiment: NCI-60 single-dose screen; type: cell-based; details: Homo sapiens, MDA-MB-231, Breast Cancer, read-out: % Growth Inhibition (GI%)
Description: as §2

HT29 = experiment: NCI-60 single-dose screen; type: cell-based; details: Homo sapiens, HT-29, HT29, Colon Cancer, read-out: % Growth Inhibition (GI%)
Description: as §2

SF-539 = experiment: NCI-60 single-dose screen; type: cell-based; details: Homo sapiens, SF-539, CNS Cancer, read-out: % Growth Inhibition (GI%)
Description: as §2

TK-10 = experiment: NCI-60 single-dose screen; type: cell-based; details: Homo sapiens, TK-10, Renal Cancer, read-out: % Growth Inhibition (GI%)
Description: as §2

OVCAR-3 = experiment: NCI-60 single-dose screen; type: cell-based; details: Homo sapiens, OVCAR-3, Ovarian Cancer, read-out: % Growth Inhibition (GI%)
Description: as §2

U251 = experiment: NCI-60 single-dose screen; type: cell-based; details: Homo sapiens, U-251, U251, CNS Cancer, read-out: % Growth Inhibition (GI%)
Description: as §2

NCI-H322M = experiment: NCI-60 single-dose screen; type: cell-based; details: Homo sapiens, Non-Small Cell Lung Cancer, read-out: % Growth Inhibition (GI%)
Description: as §2

HL-60 (TB) = experiment: NCI-60 single-dose screen; type: cell-based; details: Homo sapiens, Leukemia, read-out: % Growth Inhibition (GI%)
Description: as §2

Mahlavu xenografts = experiment: Mahlavu hepatocellular carcinoma xenograft; type: in vivo; details: 40 mg/kg oral; for reduction in tumor volume: Mahlavu xenografts, nude mice, twice a week, 4 weeks; for Tolerability of the administered dose: in all studies (Mahlavu and MDA-MB-231 xenografts), no significant bodyweight loss, toxic effects or mortality
Description: Mahlavu cells (10 × 10^6 cells/mouse) prepared in 150 μL of DMEM were injected subcutaneously to the flank of 6–8 weeks old male athymic nude mice, while MDA-MB-231 cells (2 × 10^6cells/mouse) in 1:1 DMEM and matrigel were injected into mammary fat pad (MFP) of 6–8 weeks old female athymic nude mice. Tumor volume and mouse weight were measured twice a week using calipers. When the tumor volume reached ∼150 mm^3, xenografts were randomized into groups (6 mice per group), and the mice were administered subsequently with 11 or 85 (40 mg/kg in 0.5% hydroxypropyl methylcellulose plus 1% Tween 80) or vehicle by gavage feeding (3–4 days/week) for 4 weeks. The mice were sacrificed 30 days after initiation of the compound treatment and tumors were collected. Two-way ANOVA was performed for statistical significance by GraphPad Prism. All of the mice were maintained under a temperature-controlled environment with a 12 h light/dark cycle and received a standard diet and water ad libitum.

Structure (SMILES)	percentage of apoptotic populations (Annexin V) [1]	Nuclear morphology by Hoechst staining [2]	Real-time cell growth response, MCF10A (MCF10A)	Real-time cell growth response, cancer cell lines [3]	inhibition at 10 µM (SNB-19)	inhibition at 10 µM (M14)	inhibition at 10 µM (RPMI-8226)	inhibition at 10 µM (RXF 393)	inhibition at 10 µM (MDA-MB-231)	inhibition at 10 µM (HT29)	inhibition at 10 µM (SF-539)	inhibition at 10 µM (TK-10)	inhibition at 10 µM (OVCAR-3)	inhibition at 10 µM (U251)	inhibition at 10 µM (NCI-H322M)	inhibition at 10 µM (HL-60 (TB))	reduction in tumor volume (Mahlavu xenografts)	Tolerability of the administered dose (Mahlavu xenografts)
Cc1ccccc1COc1ccc(-c2noc(C)c2-c2ccc(Cl)cc2)cc1 [compound 11, 4-(4-Chlorophenyl)-5-methyl-3-(4-((2-methylbenzyl)oxy)phenyl)isoxazole]	increased	Apoptotic bodies were detectable	no difference in the growth	inhibition in the growth	44.5%	67.8%	19%	29.8%	79.2%	83.1%	36.5%	15.7%	79.3%	58.7%	2.44%	82.3%	85%	well tolerated
Cc1ccccc1COc1ccc(-c2ccnn2-c2ccc(Cl)cc2)cc1 [compound 85, 1-(4-Chlorophenyl)-5-(4-((2-methylbenzyl)oxy)phenyl)-1H-pyrazole]	increased	Apoptotic bodies were detectable	no difference in the growth	inhibition in the growth	38%	61%	22.6%	39.7%	75.8%	82.4%	28.2%	16.2%	73.4%	54%	3.12%	86.7%	40%	well tolerated
